According to ChEMBL document CHEMBL1201862, “PubChem BioAssay data set” (2004):
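Method: 48-hour compound exposure of cells in 96-well plates, five concentrations, linear interpolation of endpoints. Abbreviation: GI50, concentration required for 50% inhibition of growth.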 The source made the active and inactive calls. Rule as the data show it: active = GI50 up to about 1.1 µM and inactive = higher.

Key:
Assay in all cases: NCI anticancer screen, dose series, 48 h
A498 = system: A498
A549 = system: A549
COLO 205 = system: COLO 205
HOP-62 = system: HOP-62
IGROV-1 = system: IGROV-1
KM12 = system: KM12
NCI-H23 = system: NCI-H23
NCI-H460 = system: NCI-H460
OVCAR-3 = system: OVCAR-3
OVCAR-4 = system: OVCAR-4
OVCAR-8 = system: OVCAR-8
SF-295 = system: SF-295
SK-MEL-2 = system: SK-MEL-2
SK-MEL-5 = system: SK-MEL-5
SN12C = system: SN12C
SNB-19 = system: SNB-19
U-251 = system: U-251
TK-10 = system: TK-10

Measured: GI50

CC(=O)OC1COC(n2c(=S)n(-c3ccc(C)cc3)c(=O)c3ccccc32)C(OC(C)=O)C1OC(C)=O (configuration not stated)
inactive: A498 > 100 µM | A549 > 100 µM | COLO 205 > 100 µM | HOP-62 > 100 µM | IGROV-1 > 100 µM | KM12 > 100 µM | NCI-H23 > 100 µM | NCI-H460 > 100 µM | OVCAR-3 > 100 µM | OVCAR-4 > 100 µM | OVCAR-8 68.2 µM | SF-295 85.5 µM | SK-MEL-2 > 100 µM | SK-MEL-5 > 100 µM | SN12C > 100 µM | SNB-19 > 100 µM | U-251 > 100 µM

CCOC(=O)/C=C1\CCCC12OCCO2
inactive: A498 > 100 µM | A549 > 100 µM | COLO 205 > 100 µM | HOP-62 > 100 µM | IGROV-1 > 100 µM | KM12 > 100 µM | NCI-H460 > 100 µM | OVCAR-3 28 µM | OVCAR-4 > 100 µM | OVCAR-8 89.5 µM | SK-MEL-2 > 100 µM | SK-MEL-5 > 100 µM | SN12C > 100 µM | SNB-19 > 100 µM | TK-10 > 100 µM | U-251 > 100 µM

Cc1cc(N(CCC#N)S(=O)(=O)c2ccccc2)ccc1C=O
inactive: A498 > 100 µM | A549 > 100 µM | COLO 205 > 100 µM | HOP-62 > 100 µM | IGROV-1 > 100 µM | KM12 > 100 µM | NCI-H23 > 100 µM | NCI-H460 > 100 µM | OVCAR-3 > 100 µM | OVCAR-4 > 100 µM | OVCAR-8 > 100 µM | SF-295 > 100 µM | SK-MEL-2 > 100 µM | SK-MEL-5 > 100 µM | SN12C > 100 µM | SNB-19 > 100 µM | U-251 > 100 µM

N#C/C(=C1\SC(C(N)=O)=C(N)N1c1ccccc1)c1nc2ccccc2[nH]1
inactive: A498 42.6 µM | A549 > 100 µM | COLO 205 59 µM | HOP-62 > 100 µM | IGROV-1 37.3 µM | NCI-H23 > 100 µM | NCI-H460 > 100 µM | OVCAR-3 > 100 µM | OVCAR-4 > 100 µM | OVCAR-8 > 100 µM | SF-295 > 100 µM | SK-MEL-2 > 100 µM | SK-MEL-5 > 100 µM | SN12C > 100 µM | SNB-19 > 100 µM | TK-10 87.9 µM | U-251 > 100 µM
